Experimental data from patent US10711247B2, “Method for reducing pluripotent stem cells, method for producing cell population having reduced pluripotent stem cells” (TOKYO WOMEN'S MEDICAL UNIVERSITY, priority 2015, dated 2020).
Where two headings read alike, the source gives them in different places.

Key:
feeder-less iPS cells [1] = assay: feeder-less iPS cells cultured with TRPV-1 agonists, number of cells in 36 fields (Hoechst staining); details: feeder-less iPS cells on laminin E8 fragments
Description: (§1) FIGS. 8A and 8B indicate the results of culturing iPS cells cultured on laminin E8 fragments following the addition of capsaicin. Vehicle-1 represents the control used in the experiment in which capsaicin was added at 2×10^−4 M, Vehicle-2 represents the control used in the experiment in which capsaicin was added at 1×10^−4 M, and Vehicle-3 represents the control used in the experiment in which capsaicin was added at 1×10^−5 M. The upper panels in FIG. 8A indicates phase-contrast images and the bars represent 100 μm. The middle panels indicate Hoechst staining images and the bars represent 200 μm. The lower panels indicate montage images of 36 fields (6×6) of the Hoechst staining images. FIG. 8B is a graph indicating the numbers of cells in 36 fields under each condition.
(§2) Human iPS cell lines 253G1 and 2017 were purchased from RIKEN (Ibaraki, Japan). Transfer of human iPS cell line 1231A3 was received from Kyoto University.

[2] = system: iPS cell-derived cardiomyocytes; assay: iPS cell-derived cardiomyocytes cultured in medium containing capsaicin; format: cell-based, human
Description: Prior to seeding the cells, the surface of a temperature-responsive culture dish (Upcell®, CellSeed Inc., Tokyo, Japan) or cell culture dish (Corning, Inc., Corning, N.Y., USA) was coated with fetal bovine serum (FBS) for 2 hours. After the iPS cells were induced to differentiate into cardiomyocytes, the cells were detached using 0.05% trypsin/EDTA and the cell aggregates were broken up into single cells using a strainer (BD Biosciences, Inc., San Jose, Calif., USA), followed by seeding in a culture dish at 2.1×10^5 cells/cm^2 using DMEM medium (Sigma-Aldrich Corp., St. Louis, Mo., USA) containing 10% FBS and culturing in a humidified atmosphere at 37° C. and 5% CO2. In several of the experiments, the cells were treated with puromycin (Sigma-Aldrich Corp., 1.5 μg/mL) for 1 day to purify the iPS cell-derived cardiomyocytes (strain 201B7, αMHC-puro/Rex1-neo).

feeder-less iPS cells [3] = system: feeder-less iPS cells
Description: as §1, §2

Which results are given for `COc1cc(CNC(=O)CCCC/C=C/C(C)C)ccc1O` [capsaicin]?
number of cells (feeder-less iPS cells [1]; capsaicin 2×10^−4 M, 1×10^−4 M, 1×10^−5 M vs vehicle (FIGS. 8A and 8B)): significantly decreased concentration-dependently; independent pulsation of the cardiomyocytes ([2]; capsaicin 200 μM and 100 μM (concentrations toxic to iPS cells)): maintained; numbers of Nkx2.5-positive cells ([2]; capsaicin 200 μM and 100 μM, compared with vehicle (FIGS. 8C and 8D)): no changes

Which “cytotoxic activity against iPS cells” value (feeder-less iPS cells [3]) does the source give for `CCCCCCCC/C=C\CCCCCCCC(=O)NCCc1ccc(O)c(O)c1` [OLDA, N-oleoyldopamine] here?
Its value is “demonstrated cytotoxic activity against iPS cells”.

How did the “cytotoxic activity against iPS cells” value (feeder-less iPS cells [1]; FIGS. 9 and 10) turn out when `CCCCC/C=C\C/C=C\C/C=C\C/C=C\CCCC(=O)NCc1ccc(O)c(OC)c1` [arvanil] was run?
Its value is “demonstrated cytotoxic activity against iPS cells”.
